# Values quoted from earlier work in patent publication US9617305B2 (priority 2011, dated 2017).
# Where a SMILES comes first, the peptide text is derived from it. Bridges are numbered along the chain shown (N, C = ends).
# Settings: after oral administration at therapeutic dose levels
compound,measurement,value
"C[C@@H]1NC(=O)[C@@H]2CCCN2C(=O)[C@H](CC(N)=O)NC(=O)[C@@H]2CSSC[C@H](N)C(=O)N[C@H]3CSSC[C@H](NC1=O)C(=O)N[C@@H]([C@@H](C)O)C(=O)NCC(=O)N[C@H](C(=O)N[C@@H](Cc1ccc(O)cc1)C(=O)O)CSSC[C@H](NC(=O)[C@H](Cc1ccc(O)cc1)NC(=O)[C@H](CCC(=O)O)NC3=O)C(=O)N2 [linaclotide, Linaclotide] (H-CCEYCCNPACTGCY-OH; disulfide 1-6, 2-10, 5-13)",levels of linaclotide seen systemically,no detectable levels
